Measured values taken from patent publication US10597403B2, “Condensed cyclic compound, composition including the condensed cyclic compound, organic light-emitting device including the condensed cyclic compound, and method of manufacturing the organic light-emitting device” (SAMSUNG ELECTRONICS CO., LTD., priority 2015, dated 2020).

Key:
[1] = Measurement of solubility in xylene; format: physicochemical; settings: for Solubility (xylene) / solubility: solvent xylene; for solubility: result in words
Description: (§1) The glass transition temperature (Tg) and solubility of Compounds 1-5, 1-23, 1-24, and 1-79 were measured. In measuring the solubility, xylene was used as a solvent. The glass transition temperature (Tg) and solubility of each compound is written under each compound number.

[2] = Measurement of glass transition temperature (Tg), scanning calorimetry, JIS K 7121, SII DSC6220; format: physicochemical; settings: for heat resistance: result in words, from Tg
Description: The glass transition temperature may be measured by a method defined in JIS K 7121 or ISO 3146 corresponding thereto. In the following examples, the glass transition temperature was measured by a scanning calorimetric measurement method.
In an argon atmosphere, 2.20 g (5.52 mmol) of Intermediate a, 3.30 g (4.97 mmol) of Intermediate b, 0.078 g (0.11 mmol) of dichlorobis(triphenylphosphine)dipalladium, 55 mL of dioxane, and 28 mL of a 0.5 N sodium carbonate aqueous solution were added to a reaction vessel, and the mixture was stirred at a temperature of 90° C. for 8 hours. After the reaction was completed, the resultant mixture was cooled to room temperature and filtered by using celite. An organic layer obtained therefrom was concentrated and purified by column chromatography, thereby completing the preparation of Compound 1-7 (synthesized amount: 2.97 g, yield: 69.9%) (the structure thereof was identified by LC-MS). A measurement of a glass transition temperature (Tg) was performed based on JIS K 7121 by using SII DSC6220 (manufactured by Seiko Instruments Inc.).
as §1

Solubility (xylene) [1] | soluble in a hydrocarbon-based solvent ([1]; toluene or xylene) | solubility [1] | heat resistance [2] | Tg (glass transition temperature) ([2]; JIS K 7121, SII DSC6220) | Structure (SMILES)
> 10 wt % | soluble |  |  |  | c1ccc(-c2cc(-c3ccccc3)cc(-c3cccc(-c4nc(-c5ccccc5)nc(-c5cccc(-c6cccc7c6c6cc(-c8ccccc8)ccc6n7-c6ccccc6)c5)n4)c3)c2)cc1 [Compound 1-7]
 |  | excellent | excellent |  | c1ccc(-c2cc(-c3ccccc3)cc(-c3cccc(-c4nc(-c5ccccc5)nc(-c5cccc(-c6ccc7c(c6)c6cc(-c8ccccc8)ccc6n7-c6ccccc6)c5)n4)c3)c2)cc1 [Compound 1-79]
 |  | excellent | excellent |  | c1ccc(-c2cc(-c3ccccc3)cc(-c3cccc(-c4cc(-c5ccccc5)nc(-c5cccc(-c6cccc7c6c6cc(-c8ccccc8)ccc6n7-c6ccccc6)c5)n4)c3)c2)cc1 [Compound 1-5]
> 10 wt % |  |  |  | 156.6 °C | c1ccc(-c2cc(-c3ccccc3)cc(-c3cccc(-n4c5ccccc5c5cc(-c6ccc7c(c6)c6cc(-c8ccccc8)ccc6n7-c6ccccc6)ccc54)c3)c2)cc1 [Compound 6-5]
